Assay results taken from ChEMBL document CHEMBL1201862, “PubChem BioAssay data set” (2004).
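Assay format: 96-well plates, 48-hour exposure. GI50: concentration for 50% inhibition of growth.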 Active and inactive are the calls of the source. No stated cut-off is given here; in the data, active = GI50 up to about 1.1 µM and inactive = higher.

Tests used:
Experiment in all cases: NCI anticancer screen, dose series, 48 h
786-0 = test system: 786-0
A498 = test system: A498
A549 = test system: A549
ACHN = test system: ACHN
CAKI-1 = test system: CAKI-1
CCRF-CEM = test system: CCRF-CEM
COLO 205 = test system: COLO 205
DU-145 = test system: DU-145
EKVX = test system: EKVX
HCC 2998 = test system: HCC 2998
HCT-116 = test system: HCT-116
HCT-15 = test system: HCT-15
HL-60 = test system: HL-60
HOP-62 = test system: HOP-62
HT-29 = test system: HT-29
Hs-578T = test system: Hs-578T
IGROV-1 = test system: IGROV-1
K562 = test system: K562
KM12 = test system: KM12
LOX IMVI = test system: LOX IMVI
M14 = test system: M14
MCF7 = test system: MCF7
MDA-MB-231 = test system: MDA-MB-231
MDA-MB-435 = test system: MDA-MB-435
MDA-N = test system: MDA-N
MOLT-4 = test system: MOLT-4
Malme-3M = test system: Malme-3M
NCI-H226 = test system: NCI-H226
NCI-H23 = test system: NCI-H23
NCI-H460 = test system: NCI-H460
NCI-H522 = test system: NCI-H522
NCI/ADR-RES = test system: NCI/ADR-RES
OVCAR-3 = test system: OVCAR-3
OVCAR-4 = test system: OVCAR-4
OVCAR-5 = test system: OVCAR-5
OVCAR-8 = test system: OVCAR-8
PC-3 = test system: PC-3
RPMI-8226 = test system: RPMI-8226
RXF 393 = test system: RXF 393
SF-268 = test system: SF-268
SF-295 = test system: SF-295
SF-539 = test system: SF-539
SK-MEL-28 = test system: SK-MEL-28
SK-MEL-2 = test system: SK-MEL-2
SK-MEL-5 = test system: SK-MEL-5
SK-OV-3 = test system: SK-OV-3
SN12C = test system: SN12C
SNB-19 = test system: SNB-19
SNB-75 = test system: SNB-75
SR = test system: SR
SW-620 = test system: SW-620
T47D = test system: T47D
TK-10 = test system: TK-10
U-251 = test system: U-251
UACC-257 = test system: UACC-257
UACC-62 = test system: UACC-62
UO-31 = test system: UO-31
HOP-92 = test system: HOP-92
BT-549 = test system: BT-549

O=C(O)c1cc(-c2ccc3c(O)c(O)ccc3c2)ccc1O
GI50 (786-0): 31.7 µM (inactive) | GI50 (A498): 72.9 µM (inactive) | GI50 (A549): 66.4 µM (inactive) | GI50 (ACHN): > 75 µM (inactive) | GI50 (CAKI-1): 4.34 µM (inactive) | GI50 (CCRF-CEM): 12.3 µM (inactive) | GI50 (COLO 205): 24.9 µM (inactive) | GI50 (DU-145): > 75 µM (inactive) | GI50 (EKVX): > 75 µM (inactive) | GI50 (HCC 2998): > 75 µM (inactive) | GI50 (HCT-116): 15.8 µM (inactive) | GI50 (HCT-15): 41.3 µM | GI50 (HL-60): 16.8 µM (inactive) | GI50 (HOP-62): > 75 µM (inactive) | GI50 (HT-29): 18.6 µM (inactive) | GI50 (Hs-578T): > 75 µM (inactive) | GI50 (IGROV-1): 40.5 µM (inactive) | GI50 (K562): 13.1 µM (inactive) | GI50 (KM12): 47.4 µM (inactive) | GI50 (LOX IMVI): 14.1 µM (inactive) | GI50 (M14): 20.7 µM (inactive) | GI50 (MCF7): 13.4 µM (inactive) | GI50 (MDA-MB-231): 26.1 µM (inactive) | GI50 (MDA-MB-435): 21.7 µM (inactive) | GI50 (MDA-N): 25.2 µM (inactive) | GI50 (MOLT-4): 12.6 µM (inactive) | GI50 (Malme-3M): > 75 µM (inactive) | GI50 (NCI-H226): 28 µM (inactive) | GI50 (NCI-H23): 43.6 µM (inactive) | GI50 (NCI-H460): > 7.5 µM (inactive) | GI50 (NCI-H522): 38.5 µM (inactive) | GI50 (NCI/ADR-RES): 33.6 µM (inactive) | GI50 (OVCAR-3): > 75 µM (inactive) | GI50 (OVCAR-4): 12.9 µM (inactive) | GI50 (OVCAR-5): 12.6 µM (inactive) | GI50 (OVCAR-8): 23.1 µM (inactive) | GI50 (PC-3): > 75 µM (inactive) | GI50 (RPMI-8226): 15.9 µM (inactive) | GI50 (RXF 393): 17.4 µM (inactive) | GI50 (SF-268): > 75 µM (inactive) | GI50 (SF-295): 16.1 µM (inactive) | GI50 (SF-539): > 75 µM (inactive) | GI50 (SK-MEL-28): > 75 µM (inactive) | GI50 (SK-MEL-2): > 75 µM (inactive) | GI50 (SK-MEL-5): 34.2 µM (inactive) | GI50 (SK-OV-3): > 75 µM (inactive) | GI50 (SN12C): 14.8 µM (inactive) | GI50 (SNB-19): > 75 µM (inactive) | GI50 (SNB-75): > 75 µM (inactive) | GI50 (SR): 18.1 µM (inactive) | GI50 (SW-620): 15 µM (inactive) | GI50 (T47D): > 75 µM (inactive) | GI50 (TK-10): > 75 µM (inactive) | GI50 (U-251): 15 µM (inactive) | GI50 (UACC-257): 68.4 µM (inactive) | GI50 (UACC-62): 27 µM (inactive) | GI50 (UO-31): > 75 µM (inactive)

CC(=O)[C@]1(C)[C@H](C)O[C@](C)(CO)[C@H]1O[Si](C)(C)c1ccccc1
GI50 (786-0): 81.5 µM (inactive) | GI50 (A498): > 100 µM (inactive) | GI50 (A549): 56.6 µM (inactive) | GI50 (ACHN): 46.7 µM (inactive) | GI50 (CAKI-1): 17.9 µM (inactive) | GI50 (CCRF-CEM): 28.4 µM (inactive) | GI50 (COLO 205): 56.6 µM (inactive) | GI50 (DU-145): 57.1 µM (inactive) | GI50 (EKVX): 46.3 µM (inactive) | GI50 (HCC 2998): 31.5 µM (inactive) | GI50 (HCT-116): 38.4 µM (inactive) | GI50 (HCT-15): 23 µM | GI50 (HL-60): 18.4 µM (inactive) | GI50 (HOP-62): > 100 µM (inactive) | GI50 (HOP-92): 11.2 µM (inactive) | GI50 (HT-29): 78.7 µM (inactive) | GI50 (Hs-578T): 45 µM (inactive) | GI50 (IGROV-1): 17.1 µM (inactive) | GI50 (K562): 32.8 µM (inactive) | GI50 (KM12): 47.6 µM (inactive) | GI50 (LOX IMVI): 20.4 µM (inactive) | GI50 (M14): 83 µM (inactive) | GI50 (MCF7): 31.8 µM (inactive) | GI50 (MDA-MB-231): 45.5 µM (inactive) | GI50 (MDA-MB-435): 50.1 µM (inactive) | GI50 (MDA-N): 54 µM (inactive) | GI50 (MOLT-4): 34.6 µM (inactive) | GI50 (Malme-3M): 15.4 µM (inactive) | GI50 (NCI-H226): 67.9 µM (inactive) | GI50 (NCI-H23): 20.5 µM (inactive) | GI50 (NCI-H460): 51.2 µM (inactive) | GI50 (NCI-H522): 23.2 µM (inactive) | GI50 (NCI/ADR-RES): 37.3 µM (inactive) | GI50 (OVCAR-3): 55 µM (inactive) | GI50 (OVCAR-4): 30.4 µM (inactive) | GI50 (OVCAR-5): > 100 µM (inactive) | GI50 (OVCAR-8): 48 µM (inactive) | GI50 (PC-3): 45.5 µM (inactive) | GI50 (RPMI-8226): 35.2 µM (inactive) | GI50 (RXF 393): 14.1 µM (inactive) | GI50 (SF-268): 54.5 µM (inactive) | GI50 (SF-295): 53 µM (inactive) | GI50 (SF-539): > 100 µM (inactive) | GI50 (SK-MEL-28): 87.1 µM (inactive) | GI50 (SK-MEL-2): > 100 µM (inactive) | GI50 (SK-MEL-5): 33.9 µM (inactive) | GI50 (SK-OV-3): > 100 µM (inactive) | GI50 (SN12C): 51.6 µM (inactive) | GI50 (SNB-19): > 100 µM (inactive) | GI50 (SNB-75): > 100 µM (inactive) | GI50 (SR): 31.8 µM (inactive) | GI50 (SW-620): 73.6 µM (inactive) | GI50 (T47D): 17.8 µM (inactive) | GI50 (TK-10): 82.4 µM (inactive) | GI50 (U-251): > 100 µM (inactive) | GI50 (UACC-257): 23 µM (inactive) | GI50 (UACC-62): 97.9 µM (inactive) | GI50 (UO-31): 28.8 µM (inactive)

CCCCNC(=S)N/C=C1\C(=O)Nc2ccccc2C1=O
GI50 (786-0): > 10 µM (inactive) | GI50 (A498): > 10 µM (inactive) | GI50 (A549): > 10 µM (inactive) | GI50 (ACHN): > 10 µM (inactive) | GI50 (BT-549): > 10 µM (inactive) | GI50 (CAKI-1): > 10 µM (inactive) | GI50 (CCRF-CEM): > 10 µM (inactive) | GI50 (COLO 205): > 10 µM (inactive) | GI50 (EKVX): > 10 µM (inactive) | GI50 (HCC 2998): > 10 µM (inactive) | GI50 (HCT-15): > 10 µM | GI50 (HL-60): > 10 µM (inactive) | GI50 (HOP-62): > 10 µM (inactive) | GI50 (HOP-92): > 10 µM (inactive) | GI50 (HT-29): > 10 µM (inactive) | GI50 (IGROV-1): > 10 µM (inactive) | GI50 (K562): > 10 µM (inactive) | GI50 (KM12): > 10 µM (inactive) | GI50 (M14): > 10 µM (inactive) | GI50 (MCF7): > 10 µM (inactive) | GI50 (MDA-MB-231): > 10 µM (inactive) | GI50 (MDA-MB-435): > 10 µM (inactive) | GI50 (MOLT-4): > 10 µM (inactive) | GI50 (Malme-3M): > 10 µM (inactive) | GI50 (NCI-H226): > 10 µM (inactive) | GI50 (NCI-H23): > 10 µM (inactive) | GI50 (NCI-H460): > 10 µM (inactive) | GI50 (NCI/ADR-RES): > 10 µM (inactive) | GI50 (OVCAR-3): > 10 µM (inactive) | GI50 (OVCAR-4): > 10 µM (inactive) | GI50 (OVCAR-5): > 10 µM (inactive) | GI50 (OVCAR-8): > 10 µM (inactive) | GI50 (PC-3): > 10 µM (inactive) | GI50 (RPMI-8226): > 10 µM (inactive) | GI50 (RXF 393): > 10 µM (inactive) | GI50 (SF-268): > 10 µM (inactive) | GI50 (SF-295): > 10 µM (inactive) | GI50 (SF-539): > 10 µM (inactive) | GI50 (SK-MEL-28): > 10 µM (inactive) | GI50 (SN12C): > 10 µM (inactive) | GI50 (SNB-19): > 10 µM (inactive) | GI50 (SR): > 10 µM (inactive) | GI50 (SW-620): > 10 µM (inactive) | GI50 (T47D): > 10 µM (inactive) | GI50 (TK-10): > 10 µM (inactive) | GI50 (U-251): > 10 µM (inactive) | GI50 (UACC-257): > 10 µM (inactive) | GI50 (UACC-62): > 10 µM (inactive) | GI50 (UO-31): > 10 µM (inactive)
